Key:
BRPF2 = molecular target: T1, BRPF2 (Homo sapiens, UniProt O95696); experiment: Isothermal titration calorimetry (ITC); assay type: binding; conditions: ITC data
T1 construct: All recombinant bromodomains were expressed as described in Filippakopoulos et al; made in house
T1 sequence (O95696 562-666 limits assumed): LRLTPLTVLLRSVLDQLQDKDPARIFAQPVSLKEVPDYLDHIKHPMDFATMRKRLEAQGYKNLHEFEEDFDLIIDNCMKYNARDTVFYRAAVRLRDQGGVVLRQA

[1] = system: human osteoclast-like cells on dentine slices; experiment: Bone resorption on dentine slices; conditions: 1 μM
[2] = system: murine monocytic RAW246.7 cells; experiment: Proliferation / cell count of RAW cells; assay type: cell-based, mouse; conditions: 72 h treatment, 10 µM, n = 4, t-test p = 0.73
Description: Supplementary Figure 4: Inhibition of murine osteoclast differentiation. A) TRAP stain of primary murine bone marrow cells (BMCs) differentiated into osteoclasts for 3 days with RANKL plus either the treatment with DMSO or NIL57 at 1 µM. Bar scale indicates 200 µm. […]
treated bone marrow cells after 1, 2 and 3 days of differentiation as compared to bone marrow cells before RANKL treatment start. C.) Count of RAW cells after 72 h treatment […]
content of primary mouse BMCs treated for 0, 1, 2 and 3 days with either without or with 1

[3] = system: primary murine bone marrow cells differentiated with RANKL; experiment: Murine osteoclast differentiation, TRAP stain; assay type: cell-based, mouse
From the text: Epigenetic mechanisms play an important role in patterning and differentiation processes, and BRPF and its associated HATs have been particularly associated with differentiation of hematopoietic cells. Given our interest in bone biology, and the hematopoietic origin of the osteoclast, we investigated the potential role of the targeted bromodomains in osteoclastogenesis in mouse and human cells. Bone marrow mononuclear cells were isolated from wild-type mice, cultivated for 5 days in the presence of CSF-1, and replated in the presence of RANKL for differentiation into osteoclasts,[28] either with DMSO as a control or with varying doses of the BRPF inhibitors. […] To understand the molecular basis for this observation, we investigated the expression of several osteoclast marker genes using qPCR. […] To further investigate other osteoclast-specific effects of the BRPF inhibitors on gene transcription, we profiled genome-wide expression with Illumina MouseWG-6 v2.0 Expression BeadChips at different time points.

[4] = system: human osteoclast-like cells on bone mineral substrate; experiment: Bone resorption, Osteosurface assay (hydroxyapatite); assay type: cell-based
From the text: Dentine pits were imaged with confocal microscopy.

[5] = system: osteoclast marker genes (TRAP, CATK, CA2, NFATC1, OC-STAMP) in murine BMCs; experiment: qPCR of osteoclast marker genes in murine BMCs; assay type: cell-based, mouse; conditions: 10 ng/mL RANKL, 1 μM and 2 μM, 0-3 days
BRD4(1) = BRD4(1) (Homo sapiens, UniProt O60885); experiment: Temperature shift assay (ΔTm); assay type: binding; conditions: 10 µM compound
[6] = system: human primary monocytes (PBMCs) differentiated with RANKL; experiment: Human osteoclast differentiation (TRAP-positive multinucleated cells)
[7] = system: RANKL-induced expression of Ppap2a and SphK1; experiment: Microarray genome-wide expression in murine BMCs; assay type: cell-based, mouse; conditions: 2 μM
Description: (A) Heat map of the top 25 significant differentially expressed genes between DMSO and OF-1-treated BMCs based on sorted average p-value for the time points 48 and 72 h. Red indicates higher; blue indicates lower expression. See also, Supporting Information Figures 3 and 4.
Murine bone marrow stem cells were differentiated into osteoclast-like cells as described above. Cells were PBS-washed and lysed in RLT-Buffer (including 2-Mercaptoethanol; Qiagen, UK), and RNA was isolated via RNeasy Plus Mini Kit (Quiagen, UK). After confirmation of RNA quality (RIN = 2 ± 0.1), cDNA synthesis of approximately 1000 ng of RNA with a High Capacity cDNA Reverse Transcription Kit (Applied Biosystems, UK) was carried out. A total of 500 ng/μL cDNA was subjected to MouseWG-6 v2.0 Expression BeadChips (Illumina) at the Department of Pathology, University of Cambridge. Microarray data are available in the ArrayExpress database (www.ebi.ac.uk/arrayexpress) under accession number E-MTAB-4155. Gene expression data underwent log2 transformation and quantile normalization. Genes were filtered based on their variation across the experiments, i.e., excluding genes with a standard deviation of expression lower than 0.1. For genes with multiple probes, only the highest variable probe was selected for further analysis. […]

[8] = system: MMP9 secretion by human RANKL-induced osteoclasts; experiment: MMP9 ELISA of human osteoclast supernatant; assay type: cell-based; conditions: 1.25 μM, 7 days or 11 days
[9] = system: NFATC1 protein level in murine BMCs; experiment: Western blot of NFATC1 in murine BMCs; assay type: cell-based, mouse; conditions: 10 ng/mL RANKL, 1 μM and 2 μM
From the text: Figure 5 BRPF1B binding partners and effect of BRPF bromodomain inhibition on gene transcription during mouse osteoclastogenesis. […] The color of the circle represents the absolute spectral counts observed for the prey proteins. The circle size indicates the quantitative enrichment of a prey across all baits tested while the estimated FDR for the interaction is shown as the color of the circle edge. (B) Inhibition of murine osteoclast differentiation by panBRPF bromodomain inhibition. […] Bar scale indicates 200 μm. […] Data were normalized to day 0 of RANKL treatment. […] LaminB1 was used as a loading control.
Murine osteoclast-like cells were PBS washed, homogenized and lysed in RIPA buffer (50 mM Tris-HCl, pH 7.4; 150 mM NaCl; 1% NP-40; 0.5% Na-deoxycholate; 0.1% SDS; 2 mM EDTA; 10 mM NaF) containing protease inhibitors (Pierce, according to manufacturer’s specifications) with a 1 mL syringe and a 23-gauge needle. After centrifugation at 15 000 rpm at 4 °C for 10 min, supernatants were frozen at −80 °C. Protein concentrations were assayed using a Pierce BCA Kit, and 30 μg of protein per lane was subjected on 10% SDS gel. […] Absorbance was measured at 440 nm.

COc1cc2c(cc1NS(=O)(=O)c1ccc(Br)cc1C)n(C)c(=O)n2C [OF-1]
weaker potency for BRPF2 (vs BRPF1B) (BRPF2): 5 fold | resorption of dentine [1]: complete block | Count of RAW cells vs DMSO [2]: no significant difference | number of multinucleated TRAP positive cells [3]: significant reductions | pit formation on hydroxyapatite (Osteosurface assay) [4]: significant reduction | expression of osteoclast marker genes (qPCR) [5]: significant reductions | ΔTm at 10 µM (BRD4(1)): 2.1 °C | fusion into multinucleated osteoclast-like cells [6]: completely suppress | RANKL-induced expression of Ppap2a and SphK1 [7]: significantly down-regulated | MMP9 secretion [8]: significant reductions | NFATC1 protein level [9]: strong down-regulation

COc1ccccc1C(=O)Nc1cc2c(cc1N1CCCC1)n(C)c(=O)n2C [PFI-4]
MMP9 secretion [8]: significant reductions
